These results are taken from ChEMBL document CHEMBL1147371, “Les Chimanines, Nouvelles Quinoleines Substituees en 2, Isolees d'Une Plante Bolivienne Antiparasitaire: Galipea longiflora” (1993).

Values after ≈ are worked out from the molar mass of the structure shown.

The subject of test [1] is Leishmania braziliensis. In words: Antileishmanial activity against Leishmania braziliensis 2903. The class given is functional.
Test [2] deals with Trypanosoma cruzi. In words: Antitrypanosomal activity against Trypanosoma cruzi Tulahuen. It counts as functional.

As to `CCCCCc1ccc2ccccc2n1`, the IC90 in test [1] and in test [2] was 100 µg/mL (≈ 502 µM) throughout. Regarding `c1ccc2nc(CCc3ccc4c(c3)OCO4)ccc2c1`, the IC90 in test [1] and in test [2] was 100 µg/mL (≈ 361 µM) in each case.

In the case of `COc1cc(-c2ccccc2)nc2ccccc12`, the IC90 came out at 50 µg/mL (≈ 213 µM) in test [1] and 100 µg/mL (≈ 425 µM) in test [2]. In the case of `CCCc1ccc2ccccc2n1`, the IC90 in test [1] and in test [2] was 50 µg/mL (≈ 292 µM) each time. For the compound `CCCCCc1cc(OC)c2ccccc2n1`, the IC90 in test [1] and in test [2] was 100 µg/mL (≈ 436 µM) in each case. In the case of `COc1ccc(CCc2ccc3ccccc3n2)cc1OC`, the IC90 in test [1] and in test [2] was 100 µg/mL (≈ 341 µM) each time. On to `C[C@H]1O[C@@H]1c1ccc2ccccc2n1` (relative stereo) [CHIMANINE D], for which the IC90 amounted to 25 µg/mL (≈ 135 µM) in test [1] and 50 µg/mL (≈ 270 µM) in test [2]. On the same counts, the results for `c1ccc(-c2ccc3ccccc3n2)cc1` [2-PHENYLQUINOLINE] are 100 µg/mL (≈ 487 µM) and 100 µg/mL (≈ 487 µM). Consider `O=C(Cn1ccnc1[N+](=O)[O-])NCc1ccccc1` [BENZNIDAZOLE], for which the 90% effect level in test [2] (IC90) was put at 50 µg/mL (≈ 192 µM). `CCCc1cc(OC)c2ccccc2n1` [CHIMANINE A]: the IC90 in test [1] and in test [2] was 100 µg/mL (≈ 497 µM) throughout. With `C/C=C/c1ccc2ccccc2n1` [CHIMANINE B], the IC90 in test [1] and in test [2] was 25 µg/mL (≈ 148 µM) each time. As for `COc1cc(CCc2ccc3c(c2)OCO3)nc2ccccc12` [CUSPARINE], the IC90 in test [1] and in test [2] was 100 µg/mL (≈ 325 µM) each time. `CC1CS(=O)(=O)CCN1/N=C/c1ccc([N+](=O)[O-])o1` (configuration not stated) [NIFURTIMOX] returned an IC90 in test [2] of 25 µg/mL (≈ 87 µM).

Consider `N=C(N)c1ccc(OCCCCCOc2ccc(C(=N)N)cc2)cc1` [PENTAMIDINE], for which, in test [1], the 90% effect level (IC90) was put at 1 µg/mL (≈ 2.94 µM). Consider `COc1ccc2c(OC)c3ccoc3nc2c1OC` [SKIMMIANINE], for which the IC90 in test [1] and in test [2] was 100 µg/mL (≈ 386 µM) in each case.
